Patent publication US10829453B2, “Antagonists of the kappa opioid receptor” (University of Kansas, priority 2014, dated 2020)
Structures can show the parent of a compound that is named as a salt.

Columns and labels:
[1] = target: T1, hKOR (Homo sapiens, UniProt P41145); assay: βArrestin2 recruitment (DiscoveRx PathHunter) assay; type: cell-based; conditions: for β arrestin 2 Inhibition (% U69,593 Stimulation) 1 μm: compound at 1 μm; for β arrestin 2 Inhibition (% U69,593 Stimulation) 1 μm / β arrestin 2 Inhibition (% U69,593 Stimulation) 10 Nm / β arrestin 2 Inhibition (% U69,593 Stimulation) 100 Nm: set concentration of U69,593; for β arrestin 2 Inhibition (% U69,593 Stimulation) 10 Nm: compound at 10 Nm; for β arrestin 2 Inhibition (% U69,593 Stimulation) 100 Nm: compound at 100 Nm; for IC50: read-out: IC50 (nM) ± S.E.M. βarr2
T1 construct: host or cells: U2OS (PathHunter U2OS-hKOR-βarrestin2-DX), purchased engineered cell line
T1 sequence (P41145 whole entry): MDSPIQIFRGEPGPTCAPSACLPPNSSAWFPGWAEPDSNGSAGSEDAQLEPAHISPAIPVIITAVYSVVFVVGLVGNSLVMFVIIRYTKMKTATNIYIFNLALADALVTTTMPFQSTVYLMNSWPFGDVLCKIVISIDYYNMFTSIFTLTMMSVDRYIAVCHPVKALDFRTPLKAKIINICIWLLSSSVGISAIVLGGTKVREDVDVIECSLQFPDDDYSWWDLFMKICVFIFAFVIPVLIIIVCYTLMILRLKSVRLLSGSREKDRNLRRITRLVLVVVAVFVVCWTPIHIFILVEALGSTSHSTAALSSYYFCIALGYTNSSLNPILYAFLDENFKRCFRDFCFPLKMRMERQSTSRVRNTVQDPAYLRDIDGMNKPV
Procedure: (§1) Chinese hamster ovary (CHO) cells were virally transfected to express HA-tagged recombinant human kappa opioid receptors (CHO-hKOR cell line) and maintained in DMEM/F-12 media (Invitrogen) supplemented with 10% fetal bovine serum, 1% penicillin/streptomycin, and 500 μg/ml geneticin as described in Schmid, C. L.; Streicher, J. M.; Groer, C. E.; Munro, T. A.; Zhou, L.; Bohn, L. M. Functional selectivity of 6′-guanidinonaltrindole (6′-GNTI) at kappa opioid receptors in striatal neurons. […] A DiscoveRx PathHunter™ U2OS cell line expressing βarrestin2 and hKOR (U2OS-hKOR-βarrestin2-DX) was purchased from DiscoveRx Corporation (Fremont, Calif.) and maintained MEM with 10% fetal bovine serum, 1% penicillin/streptomycin, 500 μg/ml geneticin and 250 μg/ml hygromycin B. All cells were grown at 37° C. (5% CO2 and 95% relative humidity).
Briefly, 5,000 cells/well were plated overnight in Opti-MEM containing 1% fetal bovine serum, 1% penicillin/streptomycin. Cells were pretreated with antagonist for 15 min at 37° C. followed by the addition of 1 μM U69,593 and a 90 minute incubation at 37° C. PathHunter™ detection reagent was added and cells incubated at room temperature for 60 minutes. Chemiluminescence was detected using a SpectraMax® M5e Multimode Plate Reader (Molecular Devices). βarrestin2 recruitment assays were also performed using an imaging platform (Cellomics) to visulalize translocation of a fluorescent protein tagged βarrestin2 to the membrane of KOR expressing U2OS cells.
(§2) All compounds were run in parallel assays in 2-4 replicates per individual experiment. All studies were performed n≥3 independent experiments in multiple replicates. For determination of antagonist inhibition, each individual experiment was normalized to the percentage of maximal U69,593 stimulation. The efficacy and potency values were obtained from the averages of the nonlinear regression analysis performed on each individual curve and are reported as the mean±S.E.M.

[2] = Concentrations in plasma and brain tissue of mice after a single IP dose; conditions: single 10 mg/kg IP
[3] = mouse brain, single administration; cited from earlier work
[4] = target: T2, human kappa opioid receptors (Homo sapiens, UniProt P41145); assay: In-cell western ERK1/2 phosphorylation, inhibition of U69,593 induced ERK phosphorylation; type: cell-based; conditions: hKOR-CHO cells, 100 nM U69,593, n ≥ 3; for IC50: read-out: IC50 (nM) ± S.E.M. ERK
T2 construct: HA; expressed in transfected cells; host or cells: Chinese hamster ovary (CHO) cells, virally transfected
T2 sequence (P41145 whole entry): as above
Procedure: as §1
Briefly, hKOR-CHO cells were plated in 384-well plate at 15,000 cells per well and incubated at 37° C. overnight. After an hour serum starve, cells were treated with compound followed by the addition of 100 nM U69,593 and a 10 minute incubation at 37° C. Cells were fixed, permeabilized, blocked, and stained with primary antibodies for phosphorylated ERK1/2 and total-ERK1/2 (1:300 and 1:400, respectively) at 4° C. overnight. Cells then incubated with Li-Cor secondary antibodies (anti-rabbit IRDye800CW, 1:500; anti-mouse IRDye680LT, 1:1500) and imaged with the Odyssey Infrared Imager (Li-Cor Biosciences, Lincoln, Nebr.) at 700 and 800 nm.
as §2

[5] = target: T2, human kappa opioid receptors; assay: [35S]GTPγS binding (G protein coupling) assay, antagonism of U69,593; type: biochemical; conditions: CHO-hKOR membranes, 100 nM U69,593, n ≥ 3; for IC50: read-out: IC50 (nM) ± S.E.M. [35S]GTPγS
Procedure: as §1
Briefly, cells were serum starved for 1 hour and membranes were prepared. Each reaction was performed at room temperature and contained 15 μg of membrane protein, 40 μM GDP, ˜0.1 nM [^35S]GTPγS and increasing concentrations of compounds in assay buffer (50 mM Tris-HCl, pH 7.4, 100 mM NaCl, 5 mM MgCl2, 1 mM EDTA). Directly after the addition of test compounds, 100 nM U69,593 was added to yield a total volume of 200 μL. After 1 hour, reactions were quenched by rapid filtration through GF/B filters and radioactivity was counted with a TopCount NXT high throughput screening microplate scintillation and luminescence counter (PerkinElmer Life Sciences).
as §2

[6] = system: C57BL/6 mice; assay: Locomotor activity in open field, alone and against U50,488; type: in vivo
[7] = U2OS-hKOR-βarrestin2-DX cells, 1 μM U69,593, n ≥ 3

Row | Compound | β arrestin 2 Inhibition (% U69,593 Stimulation) 1 μm [1] | β arrestin 2 Inhibition (% U69,593 Stimulation) 10 Nm [1] | β arrestin 2 Inhibition (% U69,593 Stimulation) 100 Nm [1] | IC50 [1, 7] | IC50 [4] | IC50 [5] | further results
1 | Oc1ccc2c3c1O[C@H]1c4[nH]c5c(c4C[C@@]4(O)[C@@H](C2)N(CC2CC2)CC[C@]314)C[C@@]1(O)[C@H]2Cc3ccc(O)c4c3[C@@]1(CCN2CC1CC1)[C@H]5O4 [norBNI, nor-binaltorphimine dihydrochloride, reference compound] | 0.9 % U69,593 Stimulation | 0.1 % U69,593 Stimulation | 0.6 % U69,593 Stimulation | – | – | – | presence in brain tissue ([2]; after 72 h): still significantly present; time after which still detected in brain tissue [3]: more than 21 days
2 | Cc1ccc(S(=O)(=O)N(C)Cc2ccc(C(=O)N(C)CCN(Cc3ccccc3)C(C)C)cc2)cc1 [Compound 1a, N-(2-(Benzyl(isopropyl)amino)ethyl)-N-methyl-4-((N,4-dimethylphenylsulfonamido)methyl)benzamide, reference compound] | – | – | – | – | – | – | IC50 (nM) ± S.E.M. βarr2 [1, 7]: inactive; IC50 (nM) ± S.E.M. ERK [4]: inactive; IC50 (nM) ± S.E.M. [35S]GTPγS [5]: inactive
3 | COc1ccc(CN(CCNC(=O)c2ccc3c(c2)CCN(S(=O)(=O)c2ccc(C)cc2)C3)C(C)(C)C)cc1 [Compound 1b, N-(2-(tert-butyl(4-methoxybenzyl)amino)ethyl)-2-tosyl-1,2,3,4-tetrahydroisoquinoline-6-carboxamide] | 0.0 % U69,593 Stimulation | 0.0 % U69,593 Stimulation | 0.8 % U69,593 Stimulation | – | – | – | –
4 | Cc1cc(C)c(S(=O)(=O)N2CCc3cc(C(=O)NCCN(Cc4ccccc4)C(C)C)ccc3C2)c(C)c1 [Compound 1c, N-(2-(Benzyl(isopropyl)amino)ethyl)-2-(mesitylsulfonyl)-1,2,3,4-tetrahydroisoquinoline-6-carboxamide] | – | – | – | 930 ± 150 nM | 1120 nM | 113 ± 42 nM | –
5 | Cc1ccc(S(=O)(=O)N2CCc3cc(C(=O)NCCN(Cc4ccc(Br)cc4)C(C)(C)C)ccc3C2)cc1 [Compound 1m, N-(2-((4-Bromobenzyl)(tert-butyl)amino)ethyl)-2-tosyl-1,2,3,4-tetrahydroisoquinoline-6-carboxamide] | – | – | – | 93 ± 30 nM | 87 ± 17 nM | 2.9 ± 1.2 nM | –
6 | CCc1ccc(S(=O)(=O)N2CCc3cc(C(=O)NCCN(Cc4ccc(Br)cc4)C(C)C)ccc3C2)cc1 [Compound 1g, N-(2-((4-Bromobenzyl)(isopropyl)amino)ethyl)-2-((4-ethylphenyl)sulfonyl)-1,2,3,4-tetrahydroisoquinoline-6-carboxamide] | – | – | – | 350 ± 68 nM | 314 ± 56 nM | 33 ± 11 nM | –
7 | Cc1ccc(S(=O)(=O)N2CCc3cc(C(=O)NCCN(Cc4ccc(Cl)cc4)C(C)(C)C)ccc3C2)cc1 [Compound 1l, N-(2-((4-Chlorobenzyl)(tert-butyl)amino)ethyl)-2-tosyl-1,2,3,4-tetrahydroisoquinoline-6-carboxamide] | 1.5 % U69,593 Stimulation | 29.9 % U69,593 Stimulation | 0.4 % U69,593 Stimulation | – | – | – | clearance from brain tissue ([2]; 4h measurement): almost fully cleared; crossing of the blood brain barrier into the CNS ([2]; brain tissue, within 0.5 h): cross the blood brain barrier into the CNS at concentrations similar to norBNI; effect of pretreatment on U50,488 hypolocomotion ([6]; 10-minute pretreatment, 10 mg/kg i.p., vs vehicle pretreatment followed by U50,488, FIG. 3): prevents the development of U50,488 hypolocomotion; suppression of locomotor (ambulatory) activity compared to vehicle ([6]; C57BL/6 mice, open field, 1 hour, FIG. 2): not to suppress activity compared to vehicle
8 | Cc1cc(C)c(S(=O)(=O)N2CCc3cc(C(=O)NCCN(Cc4ccc(Br)cc4)C(C)(C)C)ccc3C2)c(C)c1 [Compound 1n, N-(2-((4-Bromobenzyl)(tert-butyl)amino)ethyl)-2-(mesitylsulfonyl)-1,2,3,4-tetrahydroisoquinoline-6-carboxamide] | – | – | – | 710 ± 150 nM | 1340 nM | 106 ± 16 nM | –
9 | Cc1ccc(S(=O)(=O)N2CCc3cc(C(=O)NCCN(Cc4ccccc4)C(C)(C)C)ccc3C2)cc1 [Compound 1h, N-(2-(Benzyl(tert-butyl)amino)ethyl)-2-tosyl-1,2,3,4-tetrahydroisoquinoline-6-carboxamide] | – | – | – | 104 ± 8.2 nM | 49.1 ± 9.7 nM | 5.28 ± 0.6 nM | –
